# Measurements: US20080267942A1, “BENZAZEPIN-2(1H)-ONE DERIVATIVES” (Pfizer Limited, priority 2006, published 2008)
# Key:
# [1] = target: T1, bovine beta-2 adrenoceptor (Bos taurus, UniProt Q28044); experiment: cAMP assay in CHO cells transfected with the bovine beta-2 adrenoceptor (DiscoveRx Hit Hunter cAMP II); assay type: cell-based; conditions: CHO cells transfected with bovine beta-2 adrenoceptor, 30 minutes incubation with compound
# T1 construct: expressed in transfected cells; host or cells: CHO cells
# Description: (§1) CHO cells transfected with the bovine or porcine beta-2 adrenceptors were maintained in culture in DMEM/HAMS F12+10% FBS+2 mM glutamine+500 μg/ml geneticin (for the porcine receptor the medium was supplement with 1.5 mM HEPES) at 37° C. with a 5% CO2 atmosphere.
# (§2) Cells were plated into 96 well viewplates in medium and incubated overnight at 37° C. with a 5% CO2 atmosphere. The cells were pre-incubated with 0.5 mM IBMX in PBS for 30 minutes prior to incubation with increasing concentrations of experimental compound (5×10^−12 to 10^−5M) for 30 minutes at 37° C. with a 5% CO2 atmosphere. At the end of the incubation time the compound was removed and the cells assayed for cAMP using the DiscoveRx Hit Hunter cAMP II™ assay kit.
# (§3) Duplicate samples were run for each experimental compound and the data generated was analysed using EC50 analysis software in Graphpad Prism.
# [2] = target: T2, porcine beta-2 adrenoceptor (Sus scrofa, UniProt Q28997); experiment: cAMP assay in CHO cells transfected with the porcine beta-2 adrenoceptor (DiscoveRx Hit Hunter cAMP II); assay type: cell-based; conditions: CHO cells transfected with porcine beta-2 adrenoceptor, 30 minutes incubation with compound
# T2 construct: expressed in transfected cells; host or cells: CHO cells
# Description: as §1, §2, §3
# T1 sequence (Q28044 whole entry): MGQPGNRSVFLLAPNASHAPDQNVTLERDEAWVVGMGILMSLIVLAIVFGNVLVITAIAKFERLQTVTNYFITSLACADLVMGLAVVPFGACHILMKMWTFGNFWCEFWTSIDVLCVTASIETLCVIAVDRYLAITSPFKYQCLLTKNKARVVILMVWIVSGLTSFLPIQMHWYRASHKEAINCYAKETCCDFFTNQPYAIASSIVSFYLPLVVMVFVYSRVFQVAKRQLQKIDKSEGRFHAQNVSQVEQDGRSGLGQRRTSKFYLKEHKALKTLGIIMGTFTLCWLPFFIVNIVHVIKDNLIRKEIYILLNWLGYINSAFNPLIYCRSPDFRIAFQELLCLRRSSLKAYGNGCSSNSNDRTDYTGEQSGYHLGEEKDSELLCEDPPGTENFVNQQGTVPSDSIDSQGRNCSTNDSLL
# T2 sequence (Q28997 whole entry): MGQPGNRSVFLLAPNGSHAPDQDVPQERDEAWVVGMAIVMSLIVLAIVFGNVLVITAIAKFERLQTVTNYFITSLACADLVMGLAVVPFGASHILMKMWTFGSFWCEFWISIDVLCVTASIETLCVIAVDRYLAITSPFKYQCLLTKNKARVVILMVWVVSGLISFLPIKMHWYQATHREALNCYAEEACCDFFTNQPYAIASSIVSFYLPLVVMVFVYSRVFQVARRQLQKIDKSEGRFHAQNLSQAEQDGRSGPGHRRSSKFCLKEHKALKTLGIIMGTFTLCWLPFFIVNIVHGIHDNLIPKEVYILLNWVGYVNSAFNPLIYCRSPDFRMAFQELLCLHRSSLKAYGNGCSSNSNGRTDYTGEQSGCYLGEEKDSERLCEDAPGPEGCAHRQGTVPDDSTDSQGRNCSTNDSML
SMILES,EC50 [1] [µM],EC50 [2] [µM]
"COc1ccc2[nH]cc(CCC(C)N[C@@H]3CCn4c(=O)[nH]c5cccc(c54)[C@H]3O)c2c1 (mixture of isomers) [Example 22, 7-hydroxy-6-{[3-(5-methoxy-1H-indol-3-yl)-1-methylpropyl]amino}-4,5,6,7-tetrahydroimidazo[4,5,1-jk][1]benzazepin-2(1H)-one]",0.05,0.053
"CC(CCc1nccs1)NC1CCn2c(=O)[nH]c3cccc(c32)C1O (stereo not drawn) [Example 24a, 7-Hydroxy-6-{[1-methyl-3-(1,3-thiazol-2-yl)propyl]amino}-4,5,6,7-tetrahydroimidazo[4,5,1-jk][1]benzazepin-2(1H)-one]",0.409,0.464
"Cc1nc(C)c(CCC(C)N[C@@H]2CCn3c(=O)[nH]c4cccc(c43)[C@H]2O)s1 (single isomer, unassigned) [Example 23a, 6-{[3-(2,4-Dimethyl-1,3-thiazol-5-yl)-1-methylpropyl]amino}-7-hydroxy-4,5,6,7-tetrahydroimidazo[4,5,1-jk][1]benzazepin-2(1H)-one]",0.153,0.121
"COc1ncc(CC[C@@H](C)N[C@@H]2CCn3c(=O)[nH]c4cccc(c43)[C@H]2O)s1 [Example 67, (6R,7R)-7-hydroxy-6-{[(1R)-3-(2-methoxy-1,3-thiazol-5-yl)-1-methylpropyl]amino}-4,5,6,7-tetrahydroimidazo[4,5,1-jk][1]benzazepin-2(1H)-one]",0.0027,0.0027
"CC(CCc1cnn(C)c1)N[C@@H]1CCn2c(=O)[nH]c3cccc(c32)[C@H]1O (single isomer, unassigned) [Example 56]",0.0052,0.0027
"CC(CCc1c[nH]c2ccncc12)N[C@@H]1CCn2c(=O)[nH]c3cccc(c32)[C@H]1O (single isomer, unassigned) [Example 62]",0.035,0.028
"C[C@H](CCc1cnco1)N[C@@H]1CCn2c(=O)[nH]c3cccc(c32)[C@H]1O [Example 66, (6R,7R)-7-hydroxy-6-{[(1R)-1-methyl-3-(1,3-oxazol-5-yl)propyl]amino}-4,5,6,7-tetrahydroimidazo[4,5,1-jk][1]benzazepin-2(1H)-one]",0.0187,0.0062
"C[C@H](CCc1c[nH]c2ccccc12)N[C@@H]1CCn2c(=O)[nH]c3cccc(c32)[C@H]1O [Example 4e, 7-Hydroxy-6-{[3-(1H-indol-3-yl)-1-methylpropyl]amino}-4,5,6,7-tetrahydroimidazo[4,5,1-jk][1]benzazepin-2(1H)-one]",0.0011,0.0037
"CC(CCc1ccc2occc2c1)N[C@@H]1CCn2c(=O)[nH]c3cccc(c32)[C@H]1O (mixture of isomers) [Example 43, 6-{[3-(1-Benzofuran-5-yl)-1-methylpropyl]amino}-7-hydroxy-4,5,6,7-tetrahydroimidazo[4,5,1-jk][1]benzazepin-2(1H)-one]",0.016,0.011
"CC(CCn1cncn1)N[C@@H]1CCn2c(=O)[nH]c3cccc(c32)[C@H]1O (single isomer, unassigned) [Example 61]",0.028,0.018
"CC(CCc1c[nH]c2ccncc12)N[C@@H]1CCn2c(=O)[nH]c3cccc(c32)[C@H]1O (mixture of isomers) [Example 31c, 7-Hydroxy-6-{[1-methyl-3-(1H-pyrrolo[3,2-c]pyridin-3-yl)-propyl]amino}-4,5,6,7-tetrahydroimidazo[4,5,1-jk][1]benzazepin-2(1H)-one]",0.366,0.019
"Cc1ncc(CCC(C)N[C@@H]2CCn3c(=O)[nH]c4cccc(c43)[C@H]2O)s1 (mixture of isomers) [Example 28a, 7-Hydroxy-6-{[1-methyl-3-(2-methyl-1,3-thiazol-5-yl)propyl]amino}-4,5,6,7-tetrahydroimidazo[4,5,1-jk][1]benzazepin-2(1H)-one]",0.129,0.104
"Cc1ncsc1CCC(C)N[C@@H]1CCn2c(=O)[nH]c3cccc(c32)[C@H]1O (single isomer, unassigned) [Example 34b, 7-Hydroxy-6-{[1-methyl-3-(4-methyl-1,3-thiazol-5-yl)propyl]amino}-4,5,6,7-tetrahydroimidazo[4,5,1-jk][1]benzazepin-2(1H)-one]",0.0014,0.0021
"CC(CCc1c[nH]c2cnccc12)N[C@@H]1CCn2c(=O)[nH]c3cccc(c32)[C@H]1O (single isomer, unassigned) [Example 57]",0.0057,0.013
"CC(CCc1cccc2cc[nH]c12)N[C@@H]1CCn2c(=O)[nH]c3cccc(c32)[C@H]1O (single isomer, unassigned) [Example 38a, 7-Hydroxy-6-{[3-(1H-indol-7-yl)-1-methylpropyl]amino}-4,5,6,7-tetrahydroimidazo[4,5,1-jk][1]benzazepin-2(1H)-one]",0.044,0.079
"CC(CCc1cc(Br)no1)N[C@@H]1CCn2c(=O)[nH]c3cccc(c32)[C@H]1O (single isomer, unassigned) [Example 52]",0.0012,0.0013
"Cc1cc(CCC(C)N[C@@H]2CCn3c(=O)[nH]c4cccc(c43)[C@H]2O)ccn1 (single isomer, unassigned) [Example 63]",0.081,0.025
"CC(CCc1cn(C)c2ccccc12)N[C@@H]1CCn2c(=O)[nH]c3cccc(c32)[C@H]1O (mixture of isomers) [Example 14c, 7-Hydroxy-6-{[1-methyl-3-(1-methyl-1H-indol-3-yl)propyl]amino}-4,5,6,7-tetrahydroimidazo[4,5,1-jk][1]benzazepin-2(1H)-one]",0.0055,0.0042
"CC(CCc1c[nH]c2ccncc12)NC1CCn2c(=O)[nH]c3cccc(c32)C1O (stereo not drawn) [Example 31a, 7-Hydroxy-6-{[1-methyl-3-(1H-pyrrolo[3,2-c]pyridin-3-yl)propyl]amino}-4,5,6,7-tetrahydroimidazo[4,5,1-jk][1]benzazepin-2(1H)-one]",0.197,0.146
"CC(CCc1ccc2[nH]ccc2c1)N[C@@H]1CCn2c(=O)[nH]c3cccc(c32)[C@H]1O (single isomer, unassigned) [Example 37]",0.016,0.028
"CC(CCc1c[nH]c2ccc(Cl)cc12)N[C@@H]1CCn2c(=O)[nH]c3cccc(c32)[C@H]1O (single isomer, unassigned) [Example 21a, 6-{[3-(5-Chloro-1H-indol-3-yl)-1-methylpropyl]amino}-7-hydroxy-4,5,6,7-tetrahydroimidazo[4,5,1-jk][1]benzazepin-2(1H)-one]",1.83,> 10
"CC(CCc1cccc(=O)[nH]1)N[C@@H]1CCn2c(=O)[nH]c3cccc(c32)[C@H]1O (mixture of isomers) [Example 7a, 7-Hydroxy-6-{[1-methyl-3-(6-oxo-1,6-dihydropyridin-2-yl)propyl]amino}-4,5,6,7-tetrahydroimidazo[4,5,1-jk][1]benzazepin-2(1H)-one]",0.0046,0.0055
"CC(CCc1c[nH]c2cnccc12)N[C@@H]1CCn2c(=O)[nH]c3cccc(c32)[C@H]1O (mixture of isomers) [Example 32c, 7-Hydroxy-6-{[1-methyl-3-(1H-pyrrolo[2,3-c]pyridin-3-yl)propyl]amino}-4,5,6,7-tetrahydroimidazo[4,5,1-jk][1]benzazepin-2(1H)-one]",0.018,0.0087
O=c1[nH]c2cccc3c2n1CC[C@@H](NCCc1c[nH]c2ccccc12)[C@@H]3O (racemic) [Example 40a],0.459,0.02
"CC(CCc1cncs1)N[C@@H]1CCn2c(=O)[nH]c3cccc(c32)[C@H]1O (single isomer, unassigned) [Example 6b, 7-Hydroxy-6-{[1-methyl-3-(1,3-thiazol-5-yl)propyl]amino}-4,5,6,7-tetrahydroimidazo[4,5,1-jk][1]benzazepin-2(1H)-one]",0.0036,> 10
"Cc1nn(C)c(C)c1CCC(C)N[C@@H]1CCn2c(=O)[nH]c3cccc(c32)[C@H]1O (single isomer, unassigned) [Example 9b, 7-Hydroxy-6-{[1-methyl-3-(1,3,5-trimethyl-1H-pyrazol-4-yl)propyl]amino}-4,5,6,7-tetrahydroimidazo[4,5,1-jk][1]benzazepin-2(1H)-one]",0.0042,0.0028
"Cc1nn(C)c(C)c1CCC(C)N[C@@H]1CCn2c(=O)[nH]c3cccc(c32)[C@H]1O (single isomer, unassigned) [Example 48]",0.0034,0.0031
"CC(CCc1c[nH]c2cnccc12)NC1CCn2c(=O)[nH]c3cccc(c32)C1O (stereo not drawn) [Example 32a, 7-Hydroxy-6-{[1-methyl-3-(1H-pyrrolo[2,3-c]pyridin-3-yl)propyl]amino}-4,5,6,7-tetrahydroimidazo[4,5,1-jk][1]benzazepin-2(1H)-one]",0.052,0.092
"Cc1nc(C)c(CCC(C)N[C@@H]2CCn3c(=O)[nH]c4cccc(c43)[C@H]2O)s1 (single isomer, unassigned) [Example 23b, 6-{[3-(2,4-Dimethyl-1,3-thiazol-5-yl)-1-methylpropyl]amino}-7-hydroxy-4,5,6,7-tetrahydroimidazo[4,5,1-jk][1]benzazepin-2(1H)-one]",0.012,0.0049
"Cc1c(CC[C@@H](C)N[C@@H]2CCn3c(=O)[nH]c4cccc(c43)[C@H]2O)cnn1C [Example 53, (6R,7R)-6-{[(1R)-3-(1,5-Dimethyl-1H-pyrazol-4-yl)-1-methylpropyl]amino}-7-hydroxy-4,5,6,7-tetrahydroimidazo[4,5,1-jk][1]benzazepin-2(1H)-one]",0.002,0.0028
